Drawing on patent US20260166159A1, “KRAS G12D DEGRADATION AGENT, AND PREPARATION METHOD AND USE THEREFOR” (LEADINGTAC PHARMACEUTICAL (SHAOXING) CO., LTD., priority 2022, published 2026), this text covers IC50, DC50 and Dmax for 8 compounds.

What all share (format): cell-based
Test [1] has as its system KRAS G12D mutant human gastric cancer cell AGS. Nature of the test: 3D cell proliferation inhibition assay, AGS. Particulars: 168 h, 7 days, CTG. An excerpt:
(§1) The inhibitory effects of the compounds on 3D cell proliferation were investigated on KRAS G12D mutant human lung cancer cell A427, KRAS G12D mutant human gastric cancer cell AGS, KRAS G12D mutant human metastatic pancreatic cancer cell AsPc-1, KRAS G12D mutant human pancreatic cancer cell Panc 04.03, KRAS G12D mutant human pancreatic cancer cell HPAC, KRAS G12V mutant human lung squamous cell carcinoma cell SW900, and KRAS WT human gastric cancer cell MKN1. The specific procedures were as follows:
(§2) 10 μL of each compound solution diluted in a gradient was added to corresponding wells of a 96-well low-adsorption microplate (PerkinElmer), so that the final concentrations of the test compounds in the reaction system were in a range of 10000-0.026 nM. The final concentration of DMSO was 0.2%. Then 90 µL of cells were correspondingly seeded into each well to achieve a cell density of 5×10^2 cells/well (the cell density of SW900 was 5×10^1 cells/well, and the cell density of MKN1 was 1×10^3 cells/well). In addition to test wells for the test compounds, both a DMSO control well and a medium control well were set, with the DMSO control well containing DMSO and cells and the medium well containing only a medium. After the sample loading, the 96-well low-adsorption microplate was incubated in an incubator at 37° C. with 5% carbon dioxide for 7 days. After 7 days, the microplate was taken out, and 100 μL of CTG reagent (Promega) was added to each well. The plate was incubated at room temperature for 60 min and read on a microplate reader EnVision by the chemiluminescence program. The inhibition rates of the compounds at each concentration were calculated using the formula for the percentage inhibition of cell proliferation: inhibition rate %=(mean value of DMSO control group−single concentration reading value of compound)/(mean value of DMSO control group−mean value of medium control group)×100. Then non-linear curve fittings for logarithmic concentration-inhibition rate were performed by GraphPad Prism 8, and the IC50 values of the compounds were obtained (Table 5).

Test [2] relates to KRAS G12D mutant human lung cancer cell A427. Nature of the test: 3D cell proliferation inhibition assay, A427. Particulars: A-427, 168 h, A427, 7 days, CTG.
Text: as §1, §2

For test [3], the target named is T1, KRAS-G12D (Homo sapiens, UniProt P01116, G12D).
T1 construct: endogenous in cells; host or cells: A-427 (ATCC), AGS, AsPc-1, Panc 04.03
T1 sequence (P01116 1-188 isoform P01116-2 G12D): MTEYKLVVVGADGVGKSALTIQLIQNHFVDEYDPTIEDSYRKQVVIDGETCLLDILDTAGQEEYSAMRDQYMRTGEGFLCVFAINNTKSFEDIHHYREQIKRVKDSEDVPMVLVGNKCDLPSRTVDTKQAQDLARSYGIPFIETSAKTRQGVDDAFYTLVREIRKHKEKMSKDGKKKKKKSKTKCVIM
Description: KRAS-G12D degradation assay (Western Blot), A-427 cells. Particulars: A427 cells, 24 h, numeric values; for Dmax: A-427. The procedure: (§3) The degradation effects of the compounds on KRAS-G12D were investigated on KRAS G12D mutant human lung cancer cell A-427 (ATCC), KRAS G12D mutant human gastric cancer cell AGS, KRAS G12D mutant human metastatic pancreatic cancer cell AsPc-1, and KRAS G12D mutant human pancreatic adenocarcinoma cell Panc 04.03. The specific procedures were as follows: 0.95 mL of cells were seeded into each well of a 24-well cell culture plate to achieve a cell density of 5×10^5 cells/well; and the cell plate was incubated in an incubator at 37° C. with 5% CO2 overnight. Then 50 μL of the compound solution after dilution was added to each of the wells with the corresponding cells, so that the final concentration of the compound was in a range of 0.03-3000 nM. The final concentration of DMSO was 0.25%. After the compounds were added, the cell plate was incubated in the incubator at 37° C. with 5% CO2 for 24 h. The culture medium in the 24-well cell culture plate was removed, and the plate was washed twice with 1×PBS (KeyGEN). 120 μL of RIPA (strong) lysis buffer (Beyotime) supplemented with 1 mM phenylmethylsulfonyl fluoride, a protease inhibitor mixture (Beyotime), and a protease phosphatase inhibitor mixture (Beyotime) was added to lyse adherent A-427 cells at the bottom of the cell culture plate. After the plate was left to stand on ice for 30 min, the protein lysate in each well was transferred to a 1.5 mL centrifuge tube and centrifuged at 15000 g for 20 min at 4° C. The cell lysate supernatants after centrifugation were cryopreserved in a refrigerator at −80° C. for later use.
(§4) After the samples of the cell lysate supernatants that had been prepared were thawed from the refrigerator at −80° C., the total protein concentrations of the cell lysates were determined using a BCA protein quantification kit (Tiangen). The total protein concentrations of the samples were then adjusted to 0.5 μg/μL with PBS and 5×SDS-PAGE protein loading buffer (Beyotime), and the samples were incubated in a water bath at 100° C. for 15 min. The samples were then incubated in an ice bath for 5 min and centrifuged at 14000 g for 1 min at 4° C., and the supernatants were mixed well as loading samples for the Western Blot assay. The samples were loaded into wells of a 10% precast gel (KeyGEN) with a loading volume of 10 μL (total protein: 5 μg), a sufficient Tris-MOPS-SDS running buffer (Adamas) was added, and then electrophoresis was performed at a constant voltage of 120 V for 55 min. After the electrophoresis, the proteins on the gel were transferred to PVDF membranes at a constant current of 250 mA for 55 min. After the membrane transfer, the PVDF membranes were incubated in 1× Quick Block blocking buffer (Beyotime) at room temperature for 30 min. After the blocking, the PVDF membranes were separately incubated at 4° C. overnight with the KRAS antibody (Abcam) diluted in a ratio of 1:1000 and the […] antibody (Abcam) diluted in a ratio of 1:2000 in 5% BSA as the diluent, and then washed with 1×TBST buffer (2.4 g of Tris, 8.8 g of NaCl, 1.5 mL of Tween 20, with pH adjusted to 7.4, with the volume brought to 1 L) 3 times for 10 min/time. The membranes were incubated with a secondary antibody (Abcam) diluted in 5% BSA at room temperature for 2 h, and then washed with 1×TBST buffer 3 times for 10 min/time. Finally, the membranes were incubated with Clarity Western ECL Substrate (BIO-RAD) for 5 min for luminescence and color development, and a ChemiScope 6200 Touch chemiluminescence imaging system (Clinx) was used for color development and protein mapping. Gray value analysis of the protein maps was performed using the chemiluminescence analysis software (Clinx). The gray correction value for each sample was calculated using the formula: gray correction value=(gray value of target protein/gray value of corresponding internal reference)×10^3. Then degradation rates were calculated by comparison with the gray correction value of the control group. […]
(In general: Immunoblotting shows a protein as a band on a membrane.)

Test [4] has as its target T1, KRAS-G12D. Description: KRAS-G12D degradation assay (Western Blot), AsPc-1 cells. Particulars: for DC50: 24 h; for Dmax: ASPC1, 24 h. The method, then:
as §3, §4

As a reminder, the IC50 is the concentration needed to halve the response being measured. The low end stands for greater potency, the high end for weaker potency. A word on the DC50: it is the concentration at which degradation of the target reaches its halfway point. A lower DC50 goes with degradation at low concentration. Usually Dmax stands for the greatest extent of degradation seen. A high value points to a fuller loss of target. In test [1] (numeric values), `C#Cc1cccc2cc(O)cc(-c3ccc4c(N5CC6CCC(C5)N6)nc(OCC5(CN6CCN(CC7CCC8(CC7)CCN(C(=O)c7ccc(OC)c(N9CCC(=O)NC9=O)c7)CC8)CC6)CC5)nc4c3F)c12` [Example 76, 1-(5-(9-((4-((1-(((4-(3,8-diazabicyclo[3.2.1]octan-3-yl)-7-(8-ethynyl-3-hydroxynaphthalen-1-yl)-8-fluoroquinazolin-2-yl)oxy)methyl)cyclopropyl)methyl)piperazin-1-yl)methyl)-3-azaspiro[5.5]undecane-3-carbonyl)-2-methoxyphenyl)dihydropyrimidine-2,4(1H,3H)-dione] yielded an IC50 of 9.53 nM. In addition, in test [2] (numeric values), it took 74.8 nM to reach half-maximal inhibition (IC50). On KRAS-G12D [3], this compound displayed a half-maximal degradation concentration (DC50) of 1.74 nM and a Dmax of 89.3%.

As to `C#Cc1c(F)ccc2cc(O)cc(-c3ncc4c(N5CC6CCC(C5)N6)nc(SCC5(CN6CCN(CC7CCC8(CC7)CCN(C(=O)c7ccc(OC)c(N9CCC(=O)NC9=O)c7)CC8)CC6)CC5)nc4c3F)c12` [Example 54, 1-(5-(9-((4-((1-(((4-(3,8-diazabicyclo[3.2.1]octan-3-yl)-7-(8-ethynyl-7-fluoro-3-hydroxynaphthalen-1-yl)-8-fluoropyrido[4,3-d]pyrimidin-2-yl)thio)methyl)cyclopropyl)methyl)piperazin-1-yl)methyl)-3-azaspiro[5.5]undecane-3-carbonyl)-2-methoxyphenyl)dihydropyrimidine-2,4(1H,3H)-dione], the IC50 in test [1] (class symbols) and in test [2] (class symbols) was at most 50 nM each time.

As to `C#Cc1c(F)ccc2cc(O)cc(-c3ncc4c(N5CC6CCC(C5)N6)nc(OCCN5CCN(CC6CCC7(CC6)CCN(C(=O)c6ccc(Cl)c(N8CCC(=O)NC8=O)c6)CC7)CC5)nc4c3F)c12` [Example 60, 1-(5-(9-((4-(2-((4-(3,8-diazabicyclo[3.2.1]octan-3-yl)-7-(8-ethynyl-7-fluoro-3-hydroxynaphthalen-1-yl)-8-fluoropyrido[4,3-d]pyrimidin-2-yl)oxy)ethyl)piperazin-1-yl)methyl)-3-azaspiro[5.5]undecane-3-carbonyl)-2-chlorophenyl)dihydropyrimidine-2,4(1H,3H)-dione], the IC50 was at most 50 nM in test [1] (class symbols) and 100 to 500 nM in test [2] (class symbols).

For the compound `CCc1cccc2cc(O)cc(-c3ccc4c(N5CC6CCC(C5)N6)nc(OCC5(CN6CCN(CC7CCC8(CC7)CCN(C(=O)c7ccc(C)c(N9CCC(=O)NC9=O)c7)CC8)CC6)CC5)nc4c3F)c12` [Example 70, 1-(5-(9-((4-((1-(((4-(3,8-diazabicyclo[3.2.1]octan-3-yl)-7-(8-ethyl-3-hydroxynaphthalen-1-yl)-8-fluoroquinazolin-2-yl)oxy)methyl)cyclopropyl)methyl)piperazin-1-yl)methyl)-3-azaspiro[5.5]undecane-3-carbonyl)-2-methylphenyl)dihydropyrimidine-2,4(1H,3H)-dione], the IC50 in test [1] (numeric values) worked out at 15.5 nM. Also, at KRAS-G12D [3], it took 14.6 nM to reach half-maximal degradation (DC50) and the greatest degradation seen (Dmax) came out at 87.3%.

On to `C#Cc1c(F)ccc2cc(O)cc(-c3ncc4c(N5CC6CCC(C5)N6)nc(OCC5(CN6CCC(CCOCC7(OC)CCN(C(=O)c8ccc(Cl)c(N9CCC(=O)NC9=O)c8)CC7)CC6)CC5)nc4c3F)c12` [Example 67, 1-(5-(4-((2-(1-((1-(((4-(3,8-diazabicyclo[3.2.1]octan-3-yl)-7-(8-ethynyl-7-fluoro-3-hydroxynaphthalen-1-yl)-8-fluoropyrido[4,3-d]pyrimidin-2-yl)oxy)methyl)cyclopropyl)methyl)piperidin-4-yl)ethoxy)methyl)-4-methoxypiperidine-1-carbonyl)-2-chlorophenyl)dihydropyrimidine-2,4(1H,3H)-dione], for which the figures for the IC50 in test [1] (numeric values) and in test [2] (numeric values) were 33.6 nM and 36.5 nM, respectively.

`C#Cc1c(F)ccc2cc(O)cc(-c3ncc4c(N5CC6CCC(C5)N6)nc(OC[C@@H](CN5CCN(CC6CCC7(CC6)CCN(C(=O)c6ccc(C)c(N8CCC(=O)NC8=O)c6)CC7)CC5)OC)nc4c3F)c12` [Example 172, 1-(5-(9-((4-((R)-3-((4-(3,8-diazabicyclo[3.2.1]octan-3-yl)-7-(8-ethynyl-7-fluoro-3-hydroxynaphthalen-1-yl)-8-fluoropyrido[4,3-d]pyrimidin-2-yl)oxy)-2-methoxypropyl)piperazin-1-yl)methyl)-3-azaspiro[5.5]undecane-3-carbonyl)-2-methylphenyl)dihydropyrimidine-2,4(1H,3H)-dione]: on KRAS-G12D [4], half-maximal degradation (DC50) was put at 113 nM and the greatest degradation seen (Dmax) came to 55%.

Consider `C#Cc1c(F)ccc2cc(O)cc(-c3ncc4c(N5CC6CCC(C5)N6)nc(OC[C@H](O)CN5CCN(CC6CCC7(CC6)CCN(C(=O)c6ccc(OC)c(N8CCC(=O)NC8=O)c6)CC7)CC5)nc4c3F)c12` [Example 191, 1-(5-(9-((4-((R)-3-((4-(3,8-diazabicyclo[3.2.1]octan-3-yl)-7-(8-ethynyl-7-fluoro-3-hydroxynaphthalen-1-yl)-8-fluoropyrido[4,3-d]pyrimidin-2-yl)oxy)-2-hydroxypropyl)piperazin-1-yl)methyl)-3-azaspiro[5.5]undecane-3-carbonyl)-2-methoxyphenyl)dihydropyrimidine-2,4(1H,3H)-dione], for which, on KRAS-G12D [4], it took 149 nM to reach half-maximal degradation (DC50) and the Dmax was 81.9%.

With `C#Cc1c(F)ccc2cc(O)cc(-c3ccc4c(N5CC6CCC(C5)N6)nc(OCC5(CN6CCN(CC7CCC8(CC7)CCN(C(=O)c7ccc(Cl)c(N9CCC(=O)NC9=O)c7)CC8)CC6)CC5)nc4c3F)c12` [Example 72, 1-(5-(9-((4-((1-(((4-(3,8-diazabicyclo[3.2.1]octan-3-yl)-7-(8-ethynyl-7-fluoro-3-hydroxynaphthalen-1-yl)-8-fluoroquinazolin-2-yl)oxy)methyl)cyclopropyl)methyl)piperazin-1-yl)methyl)-3-azaspiro[5.5]undecane-3-carbonyl)-2-chlorophenyl)dihydropyrimidine-2,4(1H,3H)-dione], half-maximal inhibition in test [1] (numeric values) (IC50) required 8.64 nM. On KRAS-G12D [3], the DC50 worked out at 101 nM and the Dmax was determined as 82.6%.
